Test results published in the supplement of paper PMC13380429.

How the values were obtained:
A549-ACE2 [1] = test: drug-induced phospholipidosis relative to tamoxifen; higher = more phospholipidosis
[2] = system: A549-ACE2 infected with SARS-CoV-2; test: cell count relative to DMSO; higher = less toxic; conditions: 24 h
Caco-2 [3] = test: relative viability EC50 (midpoint between 100% and the lowest measured viability); higher = less toxic; conditions: 72 h
Vero E6 [4] = test: as above; conditions: 72 h
U2OS [5] = test: as above; conditions: 72 h
Calu-3 [6] = test: as above; conditions: 72 h
[7] = system: A549-ACE2 infected with SARS-CoV-2; test: morphology score (similarity to uninfected cells); higher = more like uninfected cells; conditions: 24 h
[8] = system: A549-ACE2 infected with SARS-CoV-2; test: SARS-CoV-2 infection rate relative to DMSO; higher = more infection; conditions: 24 h
Caco-2 [9] = test: drug sensitivity score (DSS) for viability; higher = more toxic; extreme values may be limits of the assay; conditions: 72 h
HepG2 [10] = test: as above; conditions: 72 h
Vero E6 [11] = test: as above; conditions: 72 h
U2OS [12] = test: as above; conditions: 72 h
Calu-3 [13] = test: as above; conditions: 72 h
Caco-2 [14] = test: cell viability relative to DMSO; higher = less toxic; conditions: 72 h
HepG2 [15] = test: as above; conditions: 72 h
Vero E6 [16] = test: as above; conditions: 72 h
U2OS [17] = test: as above; conditions: 72 h
Calu-3 [18] = test: as above; conditions: 72 h
A549-ACE2 [19] = test: phospholipidosis EC50; higher = less potent phospholipidosis inducer
HepG2 [20] = test: relative viability EC50 (midpoint between 100% and the lowest measured viability); higher = less toxic; conditions: 72 h

c1ccc(-c2nn3c(c2-c2ccnc4cc(OCCN5CCOCC5)ccc24)CCC3)nc1
drug-induced phospholipidosis [%], A549-ACE2 [1]
Conditions | 0.3 µM | 0.833333 µM | 3.33333 µM | 6.66667 µM | 10 µM | 30 µM
24 h | 7.41 | 15.4 | 31.7 | 44.4 | 57.5 | 78.6
48 h | 5.26 | 4.41 | 16.2 | 19.5 | 30.1 | 52.8
72 h | 2.76 | -1.59 | 7.52 | 15.3 | 29.5 | 58.6

Conditions | SARS-CoV-2 infection rate [%] | cell count [%] | cell viability [%] | morphology score | phospholipidosis EC50 [nM]
A549-ACE2 [19], 24 h | – | – | – | – | 15200
A549-ACE2 [19], 72 h | – | – | – | – | 12700
Caco-2 [14], 1 nM | – | – | 94.1 | – | –
Caco-2 [14], 10 nM | – | – | 106 | – | –
Caco-2 [14], 100 nM | – | – | 95.8 | – | –
Caco-2 [14], 1000 nM | – | – | 100 | – | –
Caco-2 [14], 10000 nM | – | – | 94.6 | – | –
Calu-3 [18], 1 nM | – | – | 102 | – | –
Calu-3 [18], 10 nM | – | – | 86.3 | – | –
Calu-3 [18], 100 nM | – | – | 104 | – | –
Calu-3 [18], 1000 nM | – | – | 96 | – | –
Calu-3 [18], 10000 nM | – | – | 101 | – | –
HepG2 [15], 1 nM | – | – | 103 | – | –
HepG2 [15], 10 nM | – | – | 100 | – | –
HepG2 [15], 100 nM | – | – | 96.6 | – | –
HepG2 [15], 1000 nM | – | – | 95.7 | – | –
HepG2 [15], 10000 nM | – | – | 74.7 | – | –
U2OS [17], 1 nM | – | – | 95.4 | – | –
U2OS [17], 10 nM | – | – | 105 | – | –
U2OS [17], 100 nM | – | – | 91.6 | – | –
U2OS [17], 1000 nM | – | – | 90.4 | – | –
U2OS [17], 10000 nM | – | – | 76.5 | – | –
Vero E6 [16], 1 nM | – | – | 102 | – | –
Vero E6 [16], 10 nM | – | – | 99.8 | – | –
Vero E6 [16], 100 nM | – | – | 111 | – | –
Vero E6 [16], 1000 nM | – | – | 108 | – | –
Vero E6 [16], 10000 nM | – | – | 105 | – | –
[2], 0.3 µM | – | 108 | – | – | –
[2], 3 µM | – | 104 | – | – | –
[2], 10 µM | – | 96 | – | – | –
[2], 30 µM | – | 95 | – | – | –
[7], 0.3 µM | – | – | – | 0.43 | –
[7], 3 µM | – | – | – | 0.25 | –
[7], 10 µM | – | – | – | 0.09 | –
[7], 30 µM | – | – | – | -0.11 | –
[8], 0.3 µM | 82 | – | – | – | –
[8], 3 µM | 97 | – | – | – | –
[8], 10 µM | 108 | – | – | – | –
[8], 30 µM | 106 | – | – | – | –

Conditions | drug sensitivity score | relative viability EC50 [nM]
Caco-2 [3] | – | > 10000
Caco-2 [9] | 0 | –
Calu-3 [6] | – | > 10000
Calu-3 [13] | 0 | –
HepG2 [10] | 1.6 | –
U2OS [5] | – | > 10000
U2OS [12] | 1.5 | –
Vero E6 [4] | – | > 10000
Vero E6 [11] | 0 | –

O=Nc1ccc(O)c2ncccc12 [NSC-3852]
drug-induced phospholipidosis [%], A549-ACE2 [1]
Conditions | 0.3 µM | 0.833333 µM | 3.33333 µM | 6.66667 µM | 10 µM
24 h | 0.34 | -0.2 | 2.51 | 14.6 | 10.9
48 h | 3.9 | 1.44 | – | – | –
72 h | 3.53 | 1.53 | – | – | –

Conditions | SARS-CoV-2 infection rate, [8] [%] | cell count, [2] [%] | cell viability, Caco-2 [14] [%] | cell viability, HepG2 [15] [%] | cell viability, U2OS [17] [%] | cell viability, Vero E6 [16] [%] | morphology score, [7]
1 nM | – | – | 86.2 | 103 | 93.5 | 99.8 | –
10 nM | – | – | 101 | 89.6 | 99.5 | 102 | –
100 nM | – | – | 98.5 | 101 | 96.2 | 98.4 | –
0.3 µM | 106 | 97 | – | – | – | – | -0.15
1000 nM | – | – | 81.6 | 77.7 | 70.2 | 71.5 | –
3 µM | 96 | 76 | – | – | – | – | -0.09
10 µM | 48 | 63 | – | – | – | – | 0.41
10000 nM | – | – | 9.2 | 33 | 7.2 | 30.1 | –
30 µM | 14 | 41 | – | – | – | – | 0.64

Conditions | drug sensitivity score | relative viability EC50 [nM]
Caco-2 [3] | – | 1730
Caco-2 [9] | 8 | –
HepG2 [10] | 6.9 | –
HepG2 [20] | – | 1320
U2OS [5] | – | 1370
U2OS [12] | 9.3 | –
Vero E6 [4] | – | 1180
Vero E6 [11] | 7.5 | –

CC(C)C[C@H](NC(=O)[C@H](CCc1ccccc1)NC(=O)CN1CCOCC1)C(=O)N[C@@H](Cc1ccccc1)C(=O)N[C@@H](CC(C)C)C(=O)[C@@]1(C)CO1 [carfilzomib]
Conditions | drug-induced phospholipidosis [%]
A549-ACE2 [1], 0.3 µM, 24 h | -37.6

Conditions | SARS-CoV-2 infection rate, [8] [%] | cell count, [2] [%] | cell viability, Caco-2 [14] [%] | cell viability, Calu-3 [18] [%] | cell viability, HepG2 [15] [%] | cell viability, U2OS [17] [%] | cell viability, Vero E6 [16] [%] | morphology score, [7]
1 nM | – | – | 91.9 | 104 | 94.6 | 96 | 100 | –
10 nM | – | – | 50.8 | 91.2 | 68.8 | 76.7 | 97.6 | –
0.1 µM | 51 | 69 | – | – | – | – | – | 0.25
100 nM | – | – | 8.6 | 5.8 | 9 | 0.4 | 55.4 | –
0.3 µM | 24 | 49 | – | – | – | – | – | 0.29
1 µM | 22 | 34 | – | – | – | – | – | 0.25
1000 nM | – | – | 4.4 | 4.3 | -0.4 | -0.5 | 5.3 | –
3 µM | 20 | 26 | – | – | – | – | – | 0.18
10000 nM | – | – | 6 | 1.7 | -0.3 | -0.3 | 2.3 | –

Conditions | drug sensitivity score | relative viability EC50 [nM]
Caco-2 [3] | – | 9.3
Caco-2 [9] | 34.7 | –
Calu-3 [6] | – | 26.7
Calu-3 [13] | 30.9 | –
HepG2 [10] | 32.8 | –
HepG2 [20] | – | 18
U2OS [5] | – | 16.1
U2OS [12] | 34.1 | –
Vero E6 [4] | – | 112
Vero E6 [11] | 22.6 | –

CCN(CC)CCOc1ccc(/C(=C(\Cl)c2ccccc2)c2ccccc2)cc1 [clomifene]
drug-induced phospholipidosis [%], A549-ACE2 [1]
Conditions | 0.3 µM | 0.833333 µM | 3.33333 µM | 6.66667 µM | 10 µM | 30 µM
24 h | 9.43 | 34.4 | 86 | 104 | 115 | 47.6
48 h | 7.92 | 29.7 | 72.8 | 101 | 120 | –
72 h | 9.07 | 23.5 | 62.7 | 94.3 | 144 | –

Conditions | SARS-CoV-2 infection rate [%] | cell count [%] | cell viability [%] | morphology score | phospholipidosis EC50 [nM]
A549-ACE2 [19], 24 h | – | – | – | – | 972
A549-ACE2 [19], 48 h | – | – | – | – | 3000
A549-ACE2 [19], 72 h | – | – | – | – | 4750
Caco-2 [14], 1 nM | – | – | 84.4 | – | –
Caco-2 [14], 10 nM | – | – | 100 | – | –
Caco-2 [14], 100 nM | – | – | 99.1 | – | –
Caco-2 [14], 1000 nM | – | – | 96.4 | – | –
Caco-2 [14], 10000 nM | – | – | 61.1 | – | –
Calu-3 [18], 1 nM | – | – | 100 | – | –
Calu-3 [18], 10 nM | – | – | 101 | – | –
Calu-3 [18], 100 nM | – | – | 102 | – | –
Calu-3 [18], 1000 nM | – | – | 90.4 | – | –
Calu-3 [18], 10000 nM | – | – | 10.8 | – | –
HepG2 [15], 1 nM | – | – | 90.5 | – | –
HepG2 [15], 10 nM | – | – | 89.9 | – | –
HepG2 [15], 100 nM | – | – | 105 | – | –
HepG2 [15], 1000 nM | – | – | 96 | – | –
HepG2 [15], 10000 nM | – | – | 26.5 | – | –
U2OS [17], 1 nM | – | – | 96.1 | – | –
U2OS [17], 10 nM | – | – | 99.4 | – | –
U2OS [17], 100 nM | – | – | 96.3 | – | –
U2OS [17], 1000 nM | – | – | 103 | – | –
U2OS [17], 10000 nM | – | – | 79.3 | – | –
Vero E6 [16], 1 nM | – | – | 94.7 | – | –
Vero E6 [16], 10 nM | – | – | 95.5 | – | –
Vero E6 [16], 100 nM | – | – | 91.9 | – | –
Vero E6 [16], 1000 nM | – | – | 101 | – | –
Vero E6 [16], 10000 nM | – | – | 77.4 | – | –
[2], 0.1 µM | – | 101 | – | – | –
[2], 0.3 µM | – | 106 | – | – | –
[2], 1 µM | – | 113 | – | – | –
[2], 3 µM | – | 117 | – | – | –
[7], 0.1 µM | – | – | – | -0.09 | –
[7], 0.3 µM | – | – | – | 0.35 | –
[7], 1 µM | – | – | – | 0.5 | –
[7], 3 µM | – | – | – | 0.8 | –
[8], 0.1 µM | 102 | – | – | – | –
[8], 0.3 µM | 84 | – | – | – | –
[8], 1 µM | 75 | – | – | – | –
[8], 3 µM | 31 | – | – | – | –

Conditions | drug sensitivity score | relative viability EC50 [nM]
Caco-2 [9] | 2.5 | –
Calu-3 [6] | – | 2270
Calu-3 [13] | 6.5 | –
HepG2 [10] | 4.6 | –
HepG2 [20] | – | 2750
U2OS [5] | – | > 10000
U2OS [12] | 0.5 | –
Vero E6 [4] | – | > 10000
Vero E6 [11] | 0.7 | –
